From patent publication US20230265116A1, “DEGRADATION OF (EGFR) BY CONJUGATION OF EGFR INHIBITORS WITH E3 LIGASE LIGAND AND METHODS OF USE” (BEIGENE, LTD., priority 2020, published 2023)

Assays:
[1] = system: EGFR Del19/T790M/C797S (BaF3-DTC cells); experiment: EGFR degradation HTRF assay, BaF3-DTC cells; format: cell-based; conditions: 16h treatment; for DTC Dmax (%): maximum percentage of degradation; for DC50: read-out: DTC DC50
Method in brief: (§1)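 EGFR remaining after a 16 h, 37 °C exposure (8 doses, 5-fold steps from 10 uM final, 0.2% DMSO) was quantified by HTRF antibodies in cell lysate. Percent inhibition relative to DMSO control was fitted by four-parameter logistic to give DC50; Dmax denotes maximal degradation.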

[2] = biological target: T1, EGFR L858R/T790M/C797S (BaF3-LTC cells) (Homo sapiens, UniProt P00533, C797S/L858R/T790M); experiment: EGFR degradation HTRF assay, BaF3-LTC cells; format: cell-based; conditions: BaF3-LTC, 16h treatment; for Dmax: maximum percentage of degradation, read-out: LTC Dmax (%); for DC50: read-out: LTC DC50
T1 construct: expressed in transfected cells; host or cells: BaF3
T1 sequence (P00533 25-1210 T790M/C797S/L858R): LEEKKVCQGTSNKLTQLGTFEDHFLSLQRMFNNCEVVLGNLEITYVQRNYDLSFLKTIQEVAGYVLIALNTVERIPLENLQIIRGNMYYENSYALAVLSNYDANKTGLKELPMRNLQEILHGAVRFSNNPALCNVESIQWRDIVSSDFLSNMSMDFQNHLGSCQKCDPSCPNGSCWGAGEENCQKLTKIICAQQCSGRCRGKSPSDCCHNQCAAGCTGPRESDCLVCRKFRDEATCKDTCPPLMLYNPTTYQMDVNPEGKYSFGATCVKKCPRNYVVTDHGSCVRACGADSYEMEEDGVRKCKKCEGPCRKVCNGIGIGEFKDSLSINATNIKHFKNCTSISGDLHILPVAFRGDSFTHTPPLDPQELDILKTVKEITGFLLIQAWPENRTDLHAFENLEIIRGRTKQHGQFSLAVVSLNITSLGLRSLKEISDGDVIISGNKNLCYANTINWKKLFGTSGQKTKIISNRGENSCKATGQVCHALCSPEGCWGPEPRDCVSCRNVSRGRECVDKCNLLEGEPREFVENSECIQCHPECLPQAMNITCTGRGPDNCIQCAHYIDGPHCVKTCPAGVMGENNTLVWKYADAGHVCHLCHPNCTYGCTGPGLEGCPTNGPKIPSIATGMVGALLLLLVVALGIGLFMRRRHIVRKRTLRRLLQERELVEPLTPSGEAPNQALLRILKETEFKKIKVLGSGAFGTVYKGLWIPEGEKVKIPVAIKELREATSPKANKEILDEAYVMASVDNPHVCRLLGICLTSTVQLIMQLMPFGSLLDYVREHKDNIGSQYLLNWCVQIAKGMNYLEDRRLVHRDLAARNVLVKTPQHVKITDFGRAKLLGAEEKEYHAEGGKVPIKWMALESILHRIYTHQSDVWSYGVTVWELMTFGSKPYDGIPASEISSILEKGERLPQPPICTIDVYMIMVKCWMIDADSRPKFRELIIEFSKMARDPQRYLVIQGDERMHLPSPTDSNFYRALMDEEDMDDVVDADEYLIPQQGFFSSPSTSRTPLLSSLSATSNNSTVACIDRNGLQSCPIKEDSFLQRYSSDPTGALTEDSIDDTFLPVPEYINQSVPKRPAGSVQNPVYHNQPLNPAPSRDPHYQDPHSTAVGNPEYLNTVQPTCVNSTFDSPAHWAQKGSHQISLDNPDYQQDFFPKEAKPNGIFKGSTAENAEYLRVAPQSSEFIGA
Method in brief: as §1

Structure (SMILES)	DC50 [1]	Dmax [2]	DC50 [2]	DTC Dmax (%) [1]
CCc1cc(Nc2ncc(Br)c(Nc3ccc4nccnc4c3P(C)(C)=O)n2)c(OC)cc1N1CCC(N2CCN(CCc3ccc(C4CCC(=O)NC4=O)c(F)c3)[C@H](CO)C2)CC1 (stereo partly drawn) [Example 291, 3-(4-(2-((S)-4-(1-(4-((5-bromo-4-((5-(dimethylphosphoryl)quinoxalin-6-yl)amino)pyrimidin-2-yl)amino)-2-ethyl-5-methoxyphenyl)piperidin-4-yl)-2-(hydroxymethyl)piperazin-1-yl)ethyl)-2-fluorophenyl)piperidine-2,6-dione]	7.9 nM	87.2%	23.6 nM	83.17%
CCc1cc(Nc2ncc(Br)c(Nc3ccc4nccnc4c3P(C)(C)=O)n2)c(OC)cc1N1CCC(N2CCN(C3CC4(CCN(c5ccc(C6CCC(=O)NC6=O)cc5)CC4)C3)CC2)CC1 (stereo not drawn) [Example 311, 3-(4-(2-(4-(1-(4-((5-bromo-4-((5-(dimethylphosphoryl)quinoxalin-6-yl)amino)pyrimidin-2-yl)amino)-2-ethyl-5-methoxyphenyl)piperidin-4-yl)piperazin-1-yl)-7-azaspiro[3.5]nonan-7-yl)phenyl)piperidine-2,6-dione]	31.8 nM	76.3%	78.2 nM	77.19%
CCc1cc(Nc2ncc(Br)c(Nc3ccc4nccnc4c3P(C)(C)=O)n2)c(OC)cc1N1CCC(N2CCN(C[C@@H]3CCN(c4ccc5c(c4)CN(C4CCC(=O)NC4=O)C5=O)C3)CC2)CC1 (stereo partly drawn) [Example 234, 3-(5-((S)-3-((4-(1-(4-((5-bromo-4-((5-(dimethylphosphoryl)quinoxalin-6-yl)amino)pyrimidin-2-yl)amino)-2-ethyl-5-methoxyphenyl)piperidin-4-yl)piperazin-1-yl)methyl)pyrrolidin-1-yl)-1-oxoisoindolin-2-yl)piperidine-2,6-dione]	4.19 nM	87.8%	15.8 nM	90.55%
CCc1cc(Nc2ncc(Br)c(Nc3ccc4nccnc4c3P(C)(C)=O)n2)c(OC)cc1N1CCC(N2CCN(C3CCN(c4ccc(C5CCC(=O)NC5=O)cc4)C3)CC2)CC1 (stereo not drawn) [Example 281, 3-(4-(3-(4-(1-(4-((5-bromo-4-((5-(dimethylphosphoryl)quinoxalin-6-yl)amino)pyrimidin-2-yl)amino)-2-ethyl-5-methoxyphenyl)piperidin-4-yl)piperazin-1-yl)pyrrolidin-1-yl)phenyl)piperidine-2,6-dione]	43.3 nM	74.6%	63.3 nM	67.1%
CCc1cc(Nc2ncc(Br)c(Nc3ccc4nccnc4c3P(C)(C)=O)n2)c(OC)cc1N1CCC(N2CCN(C(=O)C3CCN(c4ccc5nn(C6CCC(=O)NC6=O)cc5c4)CC3)CC2)CC1 (stereo not drawn) [Example 308, 3-(5-(4-(4-(1-(4-((5-bromo-4-((5-(dimethylphosphoryl)quinoxalin-6-yl)amino)pyrimidin-2-yl)amino)-2-ethyl-5-methoxyphenyl)piperidin-4-yl)piperazine-1-carbonyl)piperidin-1-yl)-2H-indazol-2-yl)piperidine-2,6-dione]	5.01 nM	91.8%	15.6 nM	93.79%
CCc1cc(Nc2ncc(Br)c(Nc3ccc4nccnc4c3P(C)(C)=O)n2)c(OC)cc1N1CCC(N2CCN(CC3CCN(c4cc(F)c(C5CCC(=O)NC5=O)c(F)c4)CC3)CC2)CC1 (stereo not drawn) [Example 303, 3-(4-(4-((4-(1-(4-((5-bromo-4-((5-(dimethylphosphoryl)quinoxalin-6-yl)amino)pyrimidin-2-yl)amino)-2-ethyl-5-methoxyphenyl)piperidin-4-yl)piperazin-1-yl)methyl)piperidin-1-yl)-2,6-difluorophenyl)piperidine-2,6-dione]	10.6 nM	86.7%	41.2 nM	90.93%
CCc1cc(Nc2ncc(Br)c(Nc3ccc4nccnc4c3P(C)(C)=O)n2)c(OC)cc1N1CCC(N2C[C@@H](C)N(CC3CN(c4ccc5c(c4)C(=O)N(C4CCC(=O)NC4=O)C5=O)C3)[C@@H](C)C2)CC1 (stereo partly drawn) [Example 159, 5-(3-(((2R,6S)-4-(1-(4-((5-bromo-4-((5-(dimethylphosphoryl)quinoxalin-6-yl)amino)pyrimidin-2-yl)amino)-2-ethyl-5-methoxyphenyl)piperidin-4-yl)-2,6-dimethylpiperazin-1-yl)methyl)azetidin-1-yl)-2-(2,6-dioxopiperidin-3-yl)isoindoline-1,3-dione]	9.34 nM	88.3%	16.1 nM	87.25%
CCc1cc(Nc2ncc(Br)c(Nc3ccc4nccnc4c3P(C)(C)=O)n2)c(OC)cc1N1CCC(N2CCN(C(=O)CC3CCN(c4cc(F)c(C5CCC(=O)NC5=O)c(F)c4)CC3)CC2)CC1 (stereo not drawn) [Example 274, 3-(4-(4-(2-(4-(1-(4-((5-bromo-4-((5-(dimethylphosphoryl)quinoxalin-6-yl)amino)pyrimidin-2-yl)amino)-2-ethyl-5-methoxyphenyl)piperidin-4-yl)piperazin-1-yl)-2-oxoethyl)piperidin-1-yl)-2,6-difluorophenyl)piperidine-2,6-dione]	15.9 nM	96%	24.3 nM	89.85%
CCc1cc(Nc2ncc(Br)c(Nc3ccc4nccnc4c3P(C)(C)=O)n2)c(OC)cc1N1CCC(N2CCN(CCc3ccc(C4CCC(=O)NC4=O)c(F)c3)[C@H](COC)C2)CC1 (stereo partly drawn) [Example 292, 3-(4-(2-((S)-4-(1-(4-((5-bromo-4-((5-(dimethylphosphoryl)quinoxalin-6-yl)amino)pyrimidin-2-yl)amino)-2-ethyl-5-methoxyphenyl)piperidin-4-yl)-2-(methoxymethyl)piperazin-1-yl)ethyl)-2-fluorophenyl)piperidine-2,6-dione]	15.1 nM	84.2%	32.3 nM	87.11%
CCc1cc(Nc2ncc(Br)c(Nc3ccc4nccnc4c3P(C)(C)=O)n2)c(OC)cc1N1CCC(N2CCN(CCc3ccc(C4CCC(=O)NC4=O)c(F)c3)[C@@H](CO)C2)CC1 (stereo partly drawn) [Example 287, 3-(4-(2-((R)-4-(1-(4-((5-bromo-4-((5-(dimethylphosphoryl)quinoxalin-6-yl)amino)pyrimidin-2-yl)amino)-2-ethyl-5-methoxyphenyl)piperidin-4-yl)-2-(hydroxymethyl)piperazin-1-yl)ethyl)-2-fluorophenyl)piperidine-2,6-dione]	5.2 nM	84.8%	22.9 nM	88.55%

Now from value to molecule, other results behind:

DC50 [1]	Dmax [2]	DC50 [2]	Structure (SMILES)	DTC Dmax (%) [1]
2.48 nM	87.8%	6.5 nM	CCc1cc(Nc2ncc(Br)c(Nc3ccc4nc(C)ccc4c3P(C)(C)=O)n2)c(OC)cc1N1CCC(N2CCN(CCc3cc(F)c(C4CCC(=O)NC4=O)c(F)c3)CC2)CC1 (stereo not drawn) [Example 314, 3-(4-(2-(4-(1-(4-((5-bromo-4-((5-(dimethylphosphoryl)-2-methylquinolin-6-yl)amino)pyrimidin-2-yl)amino)-2-ethyl-5-methoxyphenyl)piperidin-4-yl)piperazin-1-yl)ethyl)-2,6-difluorophenyl)piperidine-2,6-dione]	91.87%
1.72 nM	92.4%	2.9 nM	CCc1cc(Nc2ncc(Br)c(Nc3ccc4nc(CO)ccc4c3P(C)(C)=O)n2)c(OC)cc1N1CCC(N2CCN(CCc3cc(F)c(C4CCC(=O)NC4=O)c(F)c3)CC2)CC1 (stereo not drawn) [Example 329, 3-(4-(2-(4-(1-(4-((5-bromo-4-((5-(dimethylphosphoryl)-2-(hydroxymethyl)quinolin-6-yl)amino)pyrimidin-2-yl)amino)-2-ethyl-5-methoxyphenyl)piperidin-4-yl)piperazin-1-yl)ethyl)-2,6-difluorophenyl)piperidine-2,6-dione]	96.43%
3.94 nM	90.7%	17.4 nM	CCc1cc(Nc2ncc(Br)c(Nc3ccc4nc(C)ccc4c3P(C)(C)=O)n2)c(OC)cc1N1CCC(N2CCN(CCc3ccc4nn(C5CCC(=O)NC5=O)cc4c3)CC2)CC1 (stereo not drawn) [Example 257, 3-(5-(2-(4-(1-(4-((5-bromo-4-((5-(dimethylphosphoryl)-2-methylquinolin-6-yl)amino)pyrimidin-2-yl)amino)-2-ethyl-5-methoxyphenyl)piperidin-4-yl)piperazin-1-yl)ethyl)-2H-indazol-2-yl)piperidine-2,6-dione]	93.75%
1.19 nM	93%	4.24 nM	CCc1cc(Nc2ncc(Br)c(Nc3ccc4nc(C)ccc4c3P(C)(C)=O)n2)c(OC)cc1N1CCC(N2CCN(C(=O)CNc3cc(F)c(C4CCC(=O)NC4=O)c(F)c3)CC2)CC1 (stereo not drawn) [Example 432, 3-(4-((2-(4-(1-(4-((5-bromo-4-((5-(dimethylphosphoryl)-2-methylquinolin-6-yl)amino)pyrimidin-2-yl)amino)-2-ethyl-5-methoxyphenyl)piperidin-4-yl)piperazin-1-yl)-2-oxoethyl)amino)-2,6-difluorophenyl)piperidine-2,6-dione]	94.91%
13.5 nM	80.1%	49.3 nM	CCc1cc(Nc2ncc(Br)c(Nc3ccc4nccnc4c3P(C)(C)=O)n2)c(OC)cc1N1CCC(N2CCN(CCc3cc(Cl)c(C4CCC(=O)NC4=O)cc3F)CC2)CC1 (stereo not drawn) [Example 166, 3-(4-(2-(4-(1-(4-((5-bromo-4-((5-(dimethylphosphoryl)quinoxalin-6-yl)amino)pyrimidin-2-yl)amino)-2-ethyl-5-methoxyphenyl)piperidin-4-yl)piperazin-1-yl)ethyl)-2-chloro-5-fluorophenyl)piperidine-2,6-dione]	85.99%
